The source of these data is patent US12084472B2 (Ardelyx, Inc., priority 2015, dated 2024).

The target in this test is T1, human TGR5 (Homo sapiens, UniProt Q8TDU6).
T1 construct: expressed in transfected cells; host or cells: HEK293
T1 sequence (Q8TDU6 1-330): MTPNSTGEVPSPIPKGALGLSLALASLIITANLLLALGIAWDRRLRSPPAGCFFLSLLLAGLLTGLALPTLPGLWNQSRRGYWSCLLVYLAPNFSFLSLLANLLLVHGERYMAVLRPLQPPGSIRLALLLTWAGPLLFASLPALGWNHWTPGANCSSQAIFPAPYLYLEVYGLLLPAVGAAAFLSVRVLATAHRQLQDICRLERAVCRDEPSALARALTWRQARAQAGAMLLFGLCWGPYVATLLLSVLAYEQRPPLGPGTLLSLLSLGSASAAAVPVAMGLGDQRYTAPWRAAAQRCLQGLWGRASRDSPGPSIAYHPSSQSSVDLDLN
In words: Cell-based TGR5 assay (cAMP generation, HTRF). Particulars: HEK293 cells stably transfected with human TGR5; cAMP by HTRF; 30 minutes at 37° C.; read-out: pEC50 Human TGR5 (converted). The method in brief: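 First, compounds in 3-fold serial dilution were placed in HBSS with 10 mM HEPES pH 7.4 and 0.5 mM IBMX. Next, human TGR5-expressing HEK293 cells were added and incubated 30 min at 37° C. Finally, cAMP was detected by HTRF and pEC50 derived by logistic fitting.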
(In general: In TR-FRET formats the signal depends on donor and acceptor labels being close together.)
With `CCN(CCOCCNC(=O)N[C@@H](CO)[C@@H](O)[C@H](O)[C@H](O)CO)S(=O)(=O)c1ccc(Cl)c(COC2(c3cnccc3-c3ccccc3OC3CC3)CC2)c1` [Compound I-415, 1-(2-{2-[N-ethyl4-chloro-3-({1-[4-(2-cyclopropoxyphenyl)pyridin-3-yl]cyclopropoxy}methyl)benzenesulfonamido]ethoxy}ethyl)-3-[(2S,3R,4S,5R)-1,3,4,5,6-pentahydroxyhexan-2-yl]urea], the EC50 is below 100 nM.

With `COCCN(CCCCNC(=O)N[C@@H](CO)[C@@H](O)[C@H](O)[C@H](O)CO)S(=O)(=O)c1ccc(Cl)c(COC2(c3cnccc3-c3ccccc3OC3CC3)CC2)c1` [Compound I-416, 1-{4-[N-(2-methoxyethyl)4-chloro-3-({1-[4-(2-cyclopropoxyphenyl)pyridin-3-yl]cyclopropoxy}methyl)benzenesulfonamido]butyl}-3-[(2S,3R,4S,5R)-1,3,4,5,6-pentahydroxyhexan-2-yl]urea], the EC50 is below 100 nM. Take `O=C(NCCC1CCN(S(=O)(=O)c2ccc(Cl)c(COC3(c4cnccc4-c4ccccc4OC4CC4)CC3)c2)CC1)NC[C@H](O)[C@@H](O)[C@H](O)[C@H](O)CO` [Compound I-417, 1-(2-{1-[4-chloro-3-({1-[4-(2-cyclopropoxyphenyl)pyridin-3-yl]cyclopropoxy}methyl)benzenesulfonyl]piperidin-4-yl}ethyl)-3-[(2S,3R,4R,5R)-2,3,4,5,6-pentahydroxyhexyl]urea]: the EC50 was below 100 nM. Regarding `O=C(NC[C@H](O)[C@@H](O)[C@H](O)[C@H](O)CO)N[C@H]1CC[C@H](NS(=O)(=O)c2ccc(Cl)c(COC3(c4cnccc4-c4ccccc4OC4CC4)CC3)c2)CC1` [Compound I-418, 3-[(2S,3R,4R,5R)-2,3,4,5,6-pentahydroxyhexyl]-1-[(1r,4r)-4-[4-chloro-3-({l-[4-(2-cyclopropoxyphenyl)pyridin-3-yl]cyclopropoxy}methyl)benzenesulfonamido]cyclohexyl]urea], the EC50 is below 100 nM.

Regarding `O=C(NC[C@H](O)[C@@H](O)[C@H](O)[C@H](O)CO)N[C@H]1CC[C@@H](NS(=O)(=O)c2ccc(Cl)c(COC3(c4cnccc4-c4ccccc4OC4CC4)CC3)c2)CC1` [Compound I-419, 3-[(2S,3R,4R,5R)-2,3,4,5,6-pentahydroxyhexyl]-1-[(1s,4s)-4-[4-chloro-3-({1-[4-(2-cyclopropoxyphenyl)pyridin-3-yl]cyclopropoxy}methyl)benzenesulfonamido]cyclohexyl]urea], the EC50 is below 100 nM.

On to `O=C(NCC1CCN(S(=O)(=O)c2ccc(Cl)c(COC3(c4cnccc4-c4ccccc4OC4CC4)CC3)c2)C1)NC[C@H](O)[C@@H](O)[C@H](O)[C@H](O)CO` (stereo partly drawn) [Compound I-420, 1-({1-[4-chloro-3-({1-[4-(2-cyclopropoxyphenyl)pyridin-3-yl]cyclopropoxy}methyl)benzenesulfonyl]pyrrolidin-3-yl}methyl)-3-[(2S,3R,4R,5R)-2,3,4,5,6-pentahydroxyhexyl]urea], for which the EC50 was below 100 nM. As to `O=C(NCCC1CN(S(=O)(=O)c2ccc(Cl)c(COC3(c4cnccc4-c4ccccc4OC4CC4)CC3)c2)C1)NC[C@H](O)[C@@H](O)[C@H](O)[C@H](O)CO` [Compound I-421, 1-(2-{1-[4-chloro-3-({1-[4-(2-cyclopropoxyphenyl)pyridin-3-yl]cyclopropoxy}methyl)benzenesulfonyl]azetidin-3-yl}ethyl)-3-[(2S,3R,4R,5R)-2,3,4,5,6-pentahydroxyhexyl]urea], the EC50 was below 100 nM. Next, `O=C(NC[C@H](O)[C@@H](O)[C@H](O)[C@H](O)CO)NC1CCC(CCNS(=O)(=O)c2ccc(Cl)c(COC3(c4cnccc4-c4ccccc4OC4CC4)CC3)c2)CC1` (stereo partly drawn) [Compound I-422, 1-(4-{2-[4-chloro-3-({1-[4-(2-cyclopropoxyphenyl)pyridin-3-yl]cyclopropoxy}methyl)benzenesulfonamido]ethyl}cyclohexyl)-3-[(2S,3R,4R,5R)-2,3,4,5,6-pentahydroxyhexyl]urea]: below 100 nM; `O=C(NCCCN1CCN(S(=O)(=O)c2ccc(Cl)c(COC3(c4cnccc4-c4ccccc4OC4CC4)CC3)c2)CC1)NC[C@H](O)[C@@H](O)[C@H](O)[C@H](O)CO` [Compound I-423, 1-(3-{4-[4-chloro-3-({1-[4-(2-cyclopropoxyphenyl)pyridin-3-yl]cyclopropoxy}methyl)benzenesulfonyl]piperazin-1-yl}propyl)-3-[(2S,3R,4R,5R)-2,3,4,5,6-pentahydroxyhexyl]urea]: 126 to 1000 nM. Turning to `O=C(NCC1CCN(S(=O)(=O)c2ccc(Cl)c(COC3(c4cnccc4-c4ccccc4OC4CC4)CC3)c2)CC1)NC[C@H](O)[C@@H](O)[C@H](O)[C@H](O)CO` [Compound I-424, 1-({1-[4-chloro-3-({1-[4-(2-cyclopropoxyphenyl)pyridin-3-yl]cyclopropoxy}methyl)benzenesulfonyl]piperidin-4-yl}methyl)-3-[(2S,3R,4R,5R)-2,3,4,5,6-pentahydroxyhexyl]urea], the EC50 was below 100 nM. The figure for `O=C(NCCN1CCN(S(=O)(=O)c2ccc(Cl)c(COC3(c4cnccc4-c4ccccc4OC4CC4)CC3)c2)CC1)NC[C@H](O)[C@@H](O)[C@H](O)[C@H](O)CO` [Compound I-425, 1-(2-{4-[4-chloro-3-({1-[4-(2-cyclopropoxyphenyl)pyridin-3-yl]cyclopropoxy}methyl)benzenesulfonyl]piperazin-1-yl}ethyl)-3-[(2S,3R,4R,5R)-2,3,4,5,6-pentahydroxyhexyl]urea] is 126 to 1000 nM; for `O=C(NC[C@H](O)[C@@H](O)[C@H](O)[C@H](O)CO)NC1CN(S(=O)(=O)c2ccc(Cl)c(COC3(c4cnccc4-c4ccccc4OC4CC4)CC3)c2)C1` [Compound I-427, 1-{1-[4-chloro-3-({1-[4-(2-cyclopropoxyphenyl)pyridin-3-yl]cyclopropoxy}methyl)benzenesulfonyl]azetidin-3-yl}-3-[(2S,3R,4R,5R)-2,3,4,5,6-pentahydroxyhexyl]urea] it is 126 to 1000 nM. Turning to `O=C(NC[C@H](O)[C@@H](O)[C@H](O)[C@H](O)CO)NC1CC2(CCN(S(=O)(=O)c3ccc(Cl)c(COC4(c5cnccc5-c5ccccc5OC5CC5)CC4)c3)CC2)C1` [Compound I-428, 1-{7-[4-chloro-3-({1-[4-(2-cyclopropoxyphenyl)pyridin-3-yl]cyclopropoxy}methyl)benzenesulfonyl]-7-azaspiro[3.5]nonan-2-yl}-3-[(2S,3R,4R,5R)-2,3,4,5,6-pentahydroxyhexyl]urea], the EC50 was 126 to 1000 nM. As to `O=C(NC[C@H](O)[C@@H](O)[C@H](O)[C@H](O)CO)NC1CCN(S(=O)(=O)c2ccc(Cl)c(COC3(c4cnccc4-c4ccccc4OC4CC4)CC3)c2)C1` (stereo partly drawn) [Compound I-429, 1-{l-[4-chloro-3-({1-[4-(2-cyclopropoxyphenyl)pyridin-3-yl]cyclopropoxy}methyl)benzenesulfonyl]pyrrolidin-3-yl}-3-[(2S,3R,4R,5R)-2,3,4,5,6-pentahydroxyhexyl]urea], the EC50 is 126 to 1000 nM. The figure for `O=C(NC[C@H](O)[C@@H](O)[C@H](O)[C@H](O)CO)NC1CC2(C1)CN(S(=O)(=O)c1ccc(Cl)c(COC3(c4cnccc4-c4ccccc4OC4CC4)CC3)c1)C2` [Compound I-430, 1-{2-[4-chloro-3-({1-[4-(2-cyclopropoxyphenyl)pyridin-3-yl]cyclopropoxy}methyl)benzenesulfonyl]-2-azaspiro[3.3]heptan-6-yl}-3-[(2S,3R,4R,5R)-2,3,4,5,6-pentahydroxyhexyl]urea] is 126 to 1000 nM; for `O=C(CCCCCNS(=O)(=O)c1ccc(Cl)c(COC2(c3cnccc3-c3ccccc3OC3CC3)CC2)c1)NC[C@H](O)[C@@H](O)[C@H](O)[C@H](O)CO` [Compound I-431, 6-[4-chloro-3-({1-[4-(2-cyclopropoxyphenyl)pyridin-3-yl]cyclopropoxy}methyl)benzenesulfonamido]-N-[(2S,3R,4R,5R)-2,3,4,5,6-pentahydroxyhexyl]hexanamide] it is below 100 nM.

As to `O=C(CCCCCCNS(=O)(=O)c1ccc(Cl)c(COC2(c3cnccc3-c3ccccc3OC3CC3)CC2)c1)NC[C@H](O)[C@@H](O)[C@H](O)[C@H](O)CO` [Compound I-432, 7-[4-chloro-3-({1-[4-(2-cyclopropoxyphenyl)pyridin-3-yl]cyclopropoxy}methyl)benzenesulfonamido]-N-[(2S,3R,4R,5R)-2,3,4,5,6-pentahydroxyhexyl]heptanamide], the EC50 is below 100 nM. Regarding `O=C(CCCCNS(=O)(=O)c1ccc(Cl)c(COC2(c3cnccc3-c3ccccc3OC3CC3)CC2)c1)NC[C@H](O)[C@@H](O)[C@H](O)[C@H](O)CO` [Compound I-433, 5-[4-chloro-3-({1-[4-(2-cyclopropoxyphenyl)pyridin-3-yl]cyclopropoxy}methyl)benzenesulfonamido]-N-[(2S,3R,4R,5R)-2,3,4,5,6-pentahydroxyhexyl]pentanamide], the EC50 is below 100 nM. Next, `CN(CCC(=O)NC[C@H](O)[C@@H](O)[C@H](O)[C@H](O)CO)S(=O)(=O)c1ccc(Cl)c(COC2(c3cnccc3-c3ccccc3OC3CC3)CC2)c1` [Compound I-434, 3-[N-methyl4-chloro-3-({1-[4-(2-cyclopropoxyphenyl)pyridin-3-yl]cyclopropoxy}methyl)benzenesulfonamido]-N-[(2S,3R,4R,5R)-2,3,4,5,6-pentahydroxyhexyl]propanamide]: below 100 nM.
